Among the data in patent publication US20240150368A1, “ULK INHIBITORS AND METHODS OF USE THEREOF” (Deciphera Pharmaceuticals, LLC, priority 2022, published 2024) are IC50 values, retold here.

One test addresses T1, ULK2 kinase (Homo sapiens, UniProt Q8IYT8).
T1 construct: (residues 1-306 with N-terminal GST and His tag; ID NO: 2); purchased Signal Chem U02-11G
Put plainly: Biochemical assay for ULK2 (coupled pyruvate kinase/lactate dehydrogenase assay). The conditions noted are these: 1 mM ATP, 1 nM ULK2; read-out: ULK2 (inhibition of biochemical activity), IC50. In outline: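 Continuous PK/LDH-coupled NADH oxidation assay (A340) with 1 nM ULK2, 200 μM ULKtide and 1 mM ATP in Tris pH 7.5, 15 mM MgCl2, 1% DMSO, read 6 h at 30° C. Rates from the 2-3 h window converted to percent inhibition against no-compound and known-inhibitor controls; IC50 by four-parameter sigmoidal fit.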

The target of another test is T2, ULK1 kinase (Homo sapiens, UniProt O75385, E37A/K38A).
T2 construct: (residues 1-283; ID NO: 1); purchased Beryllium
T2 sequence (O75385 1-283 E37A/K38A): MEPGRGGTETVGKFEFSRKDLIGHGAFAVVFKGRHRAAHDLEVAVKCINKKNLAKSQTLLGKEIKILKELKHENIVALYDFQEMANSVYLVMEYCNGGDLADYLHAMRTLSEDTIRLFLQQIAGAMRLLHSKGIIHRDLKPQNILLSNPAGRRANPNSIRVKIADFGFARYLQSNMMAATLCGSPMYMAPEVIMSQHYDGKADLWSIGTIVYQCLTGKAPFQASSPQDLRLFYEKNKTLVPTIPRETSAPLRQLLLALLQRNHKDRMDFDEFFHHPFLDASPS
Briefly: Biochemical assay for ULK1 (coupled pyruvate kinase/lactate dehydrogenase assay). To be noted: 1 mM ATP, 0.1 nM ULK1; read-out: ULK1 (inhibition of biochemical activity), IC50. In outline:
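IC50 values were fitted to percent inhibition, normalised with no-compound and known-inhibitor controls, using rates from 2–3 h of a 6 h read at 30 °C. ADP was coupled through pyruvate kinase/lactate dehydrogenase to NADH loss at 340 nm.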

The test system of test [1] is ULK kinase substrate ATG13 (pS318-ATG13) in A549 (KRAS mutant) cells. Put plainly: pATG13 levels of mutant KRas A549 cells after treatment with ULK inhibitors in combination with trametinib (ELISA). Format: cell-based, human. In outline: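 A549 cells grown overnight were treated with a test-compound dose response plus trametinib at 250 nM final (or DMSO) overnight at 37° C. Lysates were assayed by total-ATG13 capture and biotinylated pS318-ATG13 detection ELISA (450 nm minus 540 nm background); % phosphorylation versus controls gave IC50 values.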
On the technique in general: ELISA stands for enzyme-linked immunosorbent assay.

pIC50: −log10 of the molar value.

T1 sequence (Q8IYT8 with tags, fused parts or gaps): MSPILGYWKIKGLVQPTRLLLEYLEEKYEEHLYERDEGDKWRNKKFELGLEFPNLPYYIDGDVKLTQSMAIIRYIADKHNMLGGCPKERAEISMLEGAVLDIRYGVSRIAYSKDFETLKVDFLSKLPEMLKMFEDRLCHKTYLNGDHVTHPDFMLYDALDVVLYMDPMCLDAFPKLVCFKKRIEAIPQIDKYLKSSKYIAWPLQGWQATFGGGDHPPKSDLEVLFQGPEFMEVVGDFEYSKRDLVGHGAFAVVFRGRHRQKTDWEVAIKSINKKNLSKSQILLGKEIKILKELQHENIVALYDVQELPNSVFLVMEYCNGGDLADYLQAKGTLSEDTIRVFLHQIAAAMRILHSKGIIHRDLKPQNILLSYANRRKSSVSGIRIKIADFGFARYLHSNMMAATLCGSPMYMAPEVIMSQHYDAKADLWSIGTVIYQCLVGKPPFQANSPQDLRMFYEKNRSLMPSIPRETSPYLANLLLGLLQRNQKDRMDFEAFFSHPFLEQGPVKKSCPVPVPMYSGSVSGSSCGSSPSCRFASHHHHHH

As to `CC/C(Nc1cnn(C(C)C)c1)=C1/C(=O)Nc2ccc(C(=O)NC[C@H]3CCCO3)cc21` [Example 95], the pIC50 – broadly, the IC50 on a negative log10 scale, so that one unit is a factor of ten – is 7.00 to 8.00 on ULK2 kinase, not below 8.00 on ULK1 kinase and not below 7.00 in test [1].
In the case of `CC/C(Nc1cnn(C2CCN(C(C)C)CC2)c1)=C1/C(=O)Nc2ccc(C(=O)NCCOC)cc21` [Example 98], the negative-log IC50 (pIC50) at ULK2 kinase was 6.30 to 7.00; at ULK1 kinase, not below 8.00; in test [1], 6.22 to 6.52.
Consider `CC/C(Nc1ccc(N2CCN(C(C)C)CC2)cc1)=C1/C(=O)Nc2cc(F)c(C(=O)NCC(F)(F)F)cc21` [Example 100], for which the pIC50 is 6.30 to 7.00 at ULK2 kinase, 6.30 to 7.00 at ULK1 kinase and 6.22 to 6.52 in test [1].
Take `C/C(Nc1cnn(C(C)C)c1)=C1/C(=O)Nc2ccc(C(=O)NCC(F)(F)F)cc21` [Example 101]: the pIC50 at ULK2 kinase was 7.00 to 8.00; on ULK1 kinase it was not below 8.00; in test [1], not below 7.00.
For the molecule `CC/C(Nc1cnn(CCOC)c1)=C1/C(=O)Nc2ccc(C(=O)NCC(F)(F)F)cc21` [Example 102], the pIC50 on ULK2 kinase is 7.00 to 8.00; at ULK1 kinase it was 7.00 to 8.00; in test [1], 6.52 to 7.00.
`CC/C(Nc1cnn(CCN(C)C)c1)=C1/C(=O)Nc2ccc(C(=O)NCC(F)(F)F)cc21` [Example 103]: the pIC50 was 7.00 to 8.00 on ULK2 kinase, not below 8.00 at ULK1 kinase and 6.22 to 6.52 in test [1].
With `CC/C(Nc1cnn([C@H]2CCOC2)c1)=C1/C(=O)Nc2ccc(C(=O)NCC(F)(F)F)cc21` [Example 104], the pIC50 was 7.00 to 8.00 at ULK2 kinase, not below 8.00 on ULK1 kinase and not below 7.00 in test [1].
Turning to `CC/C(Nc1cnn([C@@H]2CCOC2)c1)=C1/C(=O)Nc2ccc(C(=O)NCC(F)(F)F)cc21` [Example 105], the results for the pIC50 (on ULK2 kinase; on ULK1 kinase; in test [1]) were 7.00 to 8.00, not below 8.00 and not below 7.00, respectively.
In the same order, the values of `CC/C(Nc1cnn(C2CCOCC2)c1)=C1/C(=O)Nc2ccc(C(=O)NCC(F)(F)F)cc21` [Example 106] are 7.00 to 8.00, not below 8.00 and 6.52 to 7.00.
In the case of `CC/C(Nc1cnn(CC)c1)=C1/C(=O)Nc2ccc(C(=O)NCC(F)(F)F)cc21` [Example 107], the pIC50 on ULK2 kinase was 7.00 to 8.00; on ULK1 kinase, not below 8.00; in test [1], not below 7.00.
In the same order, the values of `CC/C(Nc1cn[nH]c1)=C1/C(=O)Nc2ccc(C(=O)NCC(F)(F)F)cc21` [Example 108] are 7.00 to 8.00, 7.00 to 8.00 and less than 6.22.
`CC/C(Nc1cnn(C(C)C)c1)=C1/C(=O)Nc2ccc(C(=O)NCC(F)F)cc21` [Example 112]: the results for the pIC50 (on ULK2 kinase; at ULK1 kinase; in test [1]) were 7.00 to 8.00, 7.00 to 8.00 and not below 7.00, respectively.
For the molecule `CC/C(Nc1cnn(C(F)(F)F)c1)=C1/C(=O)Nc2ccc(C(=O)NCC(F)(F)F)cc21` [Example 113], the pIC50 on ULK2 kinase was 7.00 to 8.00; at ULK1 kinase it was 7.00 to 8.00; in test [1], 6.52 to 7.00.
On to `CC/C(Nc1cnn(C(F)F)c1)=C1/C(=O)Nc2ccc(C(=O)NCC(F)(F)F)cc21` [Example 114], for which the pIC50 was 7.00 to 8.00 at ULK2 kinase, 7.00 to 8.00 at ULK1 kinase and 6.52 to 7.00 in test [1].
As to `CC/C(Nc1cnn(C2CC2)c1)=C1/C(=O)Nc2ccc(C(=O)NCC(F)(F)F)cc21` [Example 116], the results for the pIC50 (at ULK2 kinase; on ULK1 kinase; in test [1]) were 7.00 to 8.00, 7.00 to 8.00 and not below 7.00, respectively.
For the molecule `CC/C(Nc1cnn(C2CCC2)c1)=C1/C(=O)Nc2ccc(C(=O)NCC(F)(F)F)cc21` [Example 117], the pIC50 on ULK2 kinase is not below 8.00; at ULK1 kinase it was not below 8.00; in test [1], not below 7.00.
`CC/C(Nc1cnn(C2COC2)c1)=C1/C(=O)Nc2ccc(C(=O)NCC(F)(F)F)cc21` [Example 118]: the values for the pIC50 (at ULK2 kinase; on ULK1 kinase; in test [1]) were 7.00 to 8.00, not below 8.00 and 6.22 to 6.52, respectively.
Regarding `CC/C(Nc1cnn(C(C)C)c1)=C1/C(=O)Nc2ccc(C(=O)N[C@H](C)C(F)(F)F)cc21` [Example 119], the pIC50 on ULK2 kinase is 7.00 to 8.00; at ULK1 kinase, not below 8.00; in test [1], not below 7.00.
The like results for `CC/C(Nc1cn(C(C)C)nn1)=C1/C(=O)Nc2ccc(C(=O)NCC(F)(F)F)cc21` [Example 122] were, in that order, 7.00 to 8.00, 7.00 to 8.00 and less than 6.22.
In the same order, the values of `CC/C(Nc1cnn(C2CCN(C(C)C)CC2)c1)=C1/C(=O)Nc2ccc(C(C)=O)cc21` [Example 123] are 6.30 to 7.00, 6.30 to 7.00 and 6.52 to 7.00.
Consider `CC/C(Nc1cccnc1)=C1/C(=O)Nc2ccc(C(=O)NCC(F)(F)F)cc21` [Example 124], for which the pIC50 on ULK2 kinase was less than 6.30; at ULK1 kinase, 6.30 to 7.00; in test [1], less than 6.22.
In the same order, the values of `CC/C(Nc1cnn(C(C)C)c1)=C1/C(=O)Nc2ccc(C(=O)N(C)CC(F)(F)F)cc21` [Example 125] are 7.00 to 8.00, 7.00 to 8.00 and 6.22 to 6.52.
For the molecule `CC/C(Nc1cnn(C(C)C)c1)=C1/C(=O)Nc2ccc(C(=O)NCCOC)cc21` [Example 126], the results for the pIC50 (at ULK2 kinase; at ULK1 kinase; in test [1]) were 6.30 to 7.00, 7.00 to 8.00 and 6.22 to 6.52, respectively.
For the molecule `CC/C(Nc1cnn(C(C)C)c1)=C1/C(=O)Nc2ccc(C(=O)NCCC#N)cc21` [Example 127], the results for the pIC50 (at ULK2 kinase; on ULK1 kinase; in test [1]) were 7.00 to 8.00, 7.00 to 8.00 and less than 6.22, respectively.
For the molecule `CC/C(Nc1cnn(C(C)C)c1)=C1/C(=O)Nc2ccc(C(=O)NC[C@@H](C)OC)cc21` [Example 128], the pIC50 on ULK2 kinase is 6.30 to 7.00; on ULK1 kinase, 7.00 to 8.00; in test [1], 6.22 to 6.52.
Consider `CC/C(Nc1cnn(C(C)C)c1)=C1/C(=O)Nc2ccc(C(=O)NCC(C)C)cc21` [Example 130], for which the results for the negative-log IC50 (pIC50) (at ULK2 kinase; on ULK1 kinase; in test [1]) were 7.00 to 8.00, not below 8.00 and not below 7.00, respectively.
Take `CC/C(Nc1cnn(C(C)C)c1)=C1/C(=O)Nc2ccc(C(=O)NCC3CC(F)(F)C3)cc21` [Example 134]: the pIC50 on ULK2 kinase is 7.00 to 8.00; on ULK1 kinase it was not below 8.00; in test [1], not below 7.00.
As for `CC/C(Nc1cnn(C(C)C)c1)=C1/C(=O)Nc2ccc(C(=O)NCC(C)(C)F)cc21` [Example 135], the pIC50 is 7.00 to 8.00 on ULK2 kinase, not below 8.00 at ULK1 kinase and not below 7.00 in test [1].
In the same order, the values of `CC/C(Nc1cnn(C(C)C)c1)=C1/C(=O)Nc2ccc(C(=O)NCCOC(F)(F)F)cc21` [Example 136] are 7.00 to 8.00, not below 8.00 and 6.52 to 7.00.
As to `CC/C(Nc1cnn(C(C)C)c1)=C1/C(=O)Nc2ccc(C(=O)NCC3CCC(C)(C)O3)cc21` (stereo not drawn) [Example 137], the pIC50 is 7.00 to 8.00 on ULK2 kinase, not below 8.00 at ULK1 kinase and 6.22 to 6.52 in test [1].
For the molecule `CC/C(Nc1cnn(C(C)C)c1)=C1/C(=O)Nc2ccc(C(=O)NCC3CCC4(CCC4)O3)cc21` (stereo not drawn) [Example 138], the results for the pIC50 (on ULK2 kinase; at ULK1 kinase; in test [1]) were 6.30 to 7.00, 7.00 to 8.00 and less than 6.22, respectively.
Turning to `CC/C(Nc1cnn(C(C)C)c1)=C1/C(=O)Nc2ccc(C(=O)NCC3(C(F)(F)F)CC3)cc21` [Example 140], the pIC50 on ULK2 kinase was 7.00 to 8.00; at ULK1 kinase, not below 8.00; in test [1], not below 7.00.
As for `CC/C(Nc1ccc2nn(C(C)C)cc2c1)=C1/C(=O)Nc2ccc(C(=O)NCC(F)(F)F)cc21` [Example 142], the pIC50 is 7.00 to 8.00 at ULK2 kinase, 7.00 to 8.00 on ULK1 kinase and 6.22 to 6.52 in test [1].
Consider `CC/C(Nc1cnn(C2CC(F)(F)C2)c1)=C1/C(=O)Nc2ccc(C(=O)NCC(F)(F)F)cc21` [Example 144], for which the pIC50 is 7.00 to 8.00 at ULK2 kinase, not below 8.00 at ULK1 kinase and not below 7.00 in test [1].
For the molecule `CC/C(Nc1ccccn1)=C1/C(=O)Nc2ccc(C(=O)NCC(F)(F)F)cc21` [Example 145], the results for the pIC50 (on ULK2 kinase; on ULK1 kinase; in test [1]) were 6.30 to 7.00, 7.00 to 8.00 and 6.52 to 7.00, respectively.
In the same order, the values of `CC/C(Nc1cnn(C(F)F)c1)=C1/C(=O)Nc2ccc(C(=O)NCC(C)C)cc21` [Example 147] are 6.30 to 7.00, 7.00 to 8.00 and 6.52 to 7.00.
For the molecule `CC/C(Nc1cnn(C(C)C)c1)=C1/C(=O)Nc2ccc(C(=O)NCC(C)(C)OC)cc21` [Example 148], the pIC50 was 6.30 to 7.00 at ULK2 kinase, 7.00 to 8.00 at ULK1 kinase and 6.52 to 7.00 in test [1].
On to `CC/C(Nc1cc(C(F)(F)F)ccn1)=C1/C(=O)Nc2ccc(C(=O)NCC(F)(F)F)cc21` [Example 149], for which the pIC50 is 7.00 to 8.00 at ULK2 kinase, 7.00 to 8.00 at ULK1 kinase and 6.52 to 7.00 in test [1].
`CC/C(Nc1cnn(C(C)C)c1)=C1/C(=O)Nc2ccc(C(=O)NCC3(F)CC3)cc21` [Example 152]: the pIC50 at ULK2 kinase is not below 8.00; at ULK1 kinase, not below 8.00; in test [1], not below 7.00.
